Measurements published in article PMC6433232, “Targeting mitochondria in cancer therapy could provide a basis for the selective anti-cancer activity” (PLoS ONE, 2019).

Key:
[1] = in vitro; conditions: human, primary hepatocytes
Excerpt: We selected hepatocytes as normal cells because hepatocytes are mediate toxicity to multiple drugs and are used as a standard to assess toxicity of drugs in vitro [28]. […] For comparison with the standard of care, doxorubicin was also included in this analysis.

[2] = target: T1, human GSR enzyme (recombinant GSR) (Homo sapiens, UniProt P00390); test: Glutathione reductase (GSR) activity assay; format: biochemical; conditions: for remaining activity at 30 µM: 2 h at 25°C, read-out: GSR, enzyme residual activity as compared to DMSO-treated sample
T1 construct: made in house; host or cells: E. coli BL21(DE3)
T1 sequence (P00390 44-522): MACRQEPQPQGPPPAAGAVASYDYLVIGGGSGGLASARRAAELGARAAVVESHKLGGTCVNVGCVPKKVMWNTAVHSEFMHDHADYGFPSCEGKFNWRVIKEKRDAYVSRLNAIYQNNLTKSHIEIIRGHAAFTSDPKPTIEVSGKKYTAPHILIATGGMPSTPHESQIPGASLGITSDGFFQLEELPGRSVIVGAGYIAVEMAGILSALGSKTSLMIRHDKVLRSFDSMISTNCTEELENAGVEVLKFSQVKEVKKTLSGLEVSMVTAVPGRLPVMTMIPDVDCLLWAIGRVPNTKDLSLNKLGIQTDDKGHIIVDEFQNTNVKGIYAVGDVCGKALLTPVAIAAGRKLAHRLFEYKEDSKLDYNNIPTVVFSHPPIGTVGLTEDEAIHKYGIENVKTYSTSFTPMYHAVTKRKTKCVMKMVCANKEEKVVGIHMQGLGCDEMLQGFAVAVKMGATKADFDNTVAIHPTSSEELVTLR
Protocol: Recombinant GSR (0.5 u/well) in a 96-well plate was incubated in the GSR assay buffer (50 mM potassium phosphate buffer, pH 7.5 supplemented with 1 mM EDTA), 100 μl with and without compound (30 μM) for 2 h at 25°C. At the end of incubation, 100 μl of solution containing NADPH (0.087 mM), oxidized glutathione (GSSG) (0.95 mM) and 1 μl of the reagent that detects ratio of GSSG to reduced glutathione (GSH) (Abcam) were added and the mixture was incubated for an additional 1 h at 25°C. GSR activity was measured by using 490-nm excitation and monitoring fluorescence at 520 nm with a fluorescence plate reader. One unit of GSR activity was defined as the amount of enzyme required to produce 1 μM of GSH in a total reaction volume of 200 μl in 1 minute in the GSR assay buffer containing NADPH (0.087 mM), GSSG (0.95 mM) and 1 μl of GSH/GSSG ratio detection reagent (Abcam).
Next, we evaluated the inhibitory activity of the selected compounds against human GSR enzyme using recombinant GSR and Abcam GSH/GSSG ratio detection reagent (Table 1). Briefly, GSR activity was measured by following oxidized glutathione (GSSG) reduction in the presence of NADPH and expressed as percentage of residual activity with respect to DMSO-treated enzyme. The residual activity of GSR for both the non-toxic and toxic compounds was quite heterogeneous, ranging from 100% (compounds 38) to 3% (compound 32). […] We thus conclude that GSR inhibitory activity alone cannot be used to predict the selective cytotoxicity index.

[3] = system: Complex I (bovine heart mitochondria); test: MitoCheck Complex I activity assay; conditions: 30 μM; for Mito Check I, enzyme residual activity as compared to DMSO-treated sample: bovine heart mitochondria, NADH oxidation
Protocol: MitoCheck Complex I activity was determined as described in the manual of the manufacturer’s manual (Cayman). Briefly, compounds (30 μM) or DMSO were mixed with the Complex I activity assay buffer that contained bovine heart mitochondria reagent, NADH, and ubiquinone in the presence of KCN to inhibit complex IV activity. The level of Complex I activity was monitored in a kinetic assay of NADH oxidation by measuring a decrease in absorbance at 340 nm. The residual Complex I activity was calculated by dividing the rate of compound wells by the rate of DMSO wells for the linear portion of the curve.
To test possible effects of compounds on ETC, we analyzed the Complex I-mediated NADH oxidation using a MitoCheck Complex I Activity Assay Kit. The level of NADH oxidation was measured by a decrease in absorbance at 340 nm and expressed as percentage of residual activity in relation to DMSO-treated mitochondria (Table 1). […] Complex I activity was estimated by the rate of NADH oxidation which was also affected by NADH/NADPH-dehydrogenase-mediated redox cycling.

[4] = system: Recombinant NADH/NADPH dehydrogenase; test: NADH/NADPH dehydrogenase-mediated ROS generation assay; format: biochemical; conditions: 30 μM, 4 h at 37°C; for H2O2 generation, NADH/NADPH dehydrogenase -: absence of NADH/NADPH dehydrogenase; for H2O2 generation, NADH/NADPH dehydrogenase +: presence of NADH/NADPH dehydrogenase
Protocol: Recombinant NADH/NADPH dehydrogenase (0.5 units/well) in a 96-well plate was incubated in 100 μl of the assay buffer (50 mM potassium phosphate buffer, pH 7.5 supplemented with 1 mM EDTA) containing NADPH (3 μM) and superoxide dismutase (SOD) (100 units/well) with and without compound (30 μM) for 4 h at 37°C. At the end of incubation, the level of hydrogen peroxide was measured using a Hydrogen Peroxide Assay kit (Cayman). Control samples were without NADH/NADPH dehydrogenase. The rate of NADH/NADPH dehydrogenase- and compound-mediated ROS production was determined by subtracting values that were obtained in the absence of NADPH dehydrogenase. One unit of NADH/NADPH dehydrogenase was defined as the amount of enzyme required to reduce 1.0 μmole cytochrome C per min/mg in the presence of menadione substrate at 37°C. One unit of SOD was defined as the amount of enzyme required to inhibit reduction of cytochrome C by 50% in a coupled system with xanthine oxidase at pH 7.8 at 25°C in a 3.0 mL reaction volume. Xanthine oxidase concentration should produce an initial ΔA550 of 0.025 ± 0.005 per min.
As the next step, we examined the capability of the selected compounds to generate ROS in the presence or absence of NADH/NADPH dehydrogenase (Table 1). ROS can be generated by NADH/NADPH-dehydrogenase via the one electron reduction of a quinone ring of 1,4-NQs. Unstable half-reduced quinones (semiquinones) transfer electrons to molecular oxygen, thus generating superoxide anion radicals (O2^●-), which are converted by SOD to hydrogen peroxide. We believe that our assay measuring compound’s ability to generate H2O2 in the presence or absence of NADH/NADPH dehydrogenase more closely resembles conditions inside the cell than the assay designed to measure compound’s redox potential values. […] To determine the ability of compounds to induce ROS, compounds were incubated for 4 h at 37°C with and without NADH/NADPH-dehydrogenase in the presence of NADPH as an electron donor and SOD to convert generated superoxide radicals into hydrogen peroxide. At the end of incubation, 10-acetyl-3,7-dihydroxyphenoxazine (ADHP) and horseradish peroxidase (HRP) were added to the reaction and the level of HRP-mediated formation of the fluorogenic product, resorufin, was measured on a plate reader. ROS production was detected in reactions with either the toxic or non-toxic compounds.

[5] = system: breast carcinoma HCC1187 cells; test: cells; format: cell-based; conditions: for CC50: Homo sapiens, HCC1187, compound alone, unit not given in Table 1, read-out: LC50 HCC1187
Excerpt: For further analyses, we used compounds that have the selective cytotoxicity index either above 20 (non-toxic compounds) or below 1 (toxic compounds) with the aim to identify targets that are responsible for the selective activity of the identified compounds toward cancer cells. To confirm that the effects of the selected compounds are not only specific to MIA PaCa-2 cells, we evaluated their cytotoxic activities on breast carcinoma HCC1187 cells (Table 1). […] For easy comparison, the data with MIA PaCa-2 cells were also included in Table 1. […] We also noticed that, again with a few exceptions, HCC1187 cells are more resistant to the non-toxic compounds in the presence of ATO as compared to MIA PaCa-2 cells. In contrast, HCC1187 cells are more sensitive to all toxic compounds in the presence of ATO as compared to MIA PaCa-2 cells. The high sensitivity of HCC1187 cells to toxic compounds contributed to the increased selective cytotoxicity index.

[6] = Distribution coefficient LogD; format: physicochemical; conditions: octanol/water, pH 7.4; read-out: LogD, pH = 7.4
Excerpt: We conclude that the analysis of the octanol-water partitioning is not sufficient to establish a link between degree of lipophilicity and biological activities of the selected compounds.

SMILES	CC50 [1] [µM]	remaining activity at 30 µM [2] [%]	stimulation of Complex I activity [3]	Mito Check I, enzyme residual activity as compared to DMSO-treated sample [3] [%]	H2O2 generation, NADH/NADPH dehydrogenase - [4] [µM]	H2O2 generation, NADH/NADPH dehydrogenase + [4] [µM]	CC50 [5] [µM]	logD [6]	Selective cytotoxicity index HCC 1187 ATO ([5]; human)	inhibition at 30 µM ([2]; read-out: GSR-inhibiting activity) [%]
O=C1C=C(SCCO)C(=O)c2ccccc21 [compound 60]	3.3	38	more than 30%	212	6.9	12.7	0.6	2.99		
O=C1C(Cl)=C(NCCO)C(=O)c2ccccc21 [compound 17]	83	65		38	2.6	4.8	19.2	1.12	46.7	
CCCCOCCCNC1=C(Cl)C(=O)c2ccccc2C1=O [compound 26]	4.8	66		112	5.9	3.8	1.7	0		
O=C1C(Cl)=C(Nc2nccs2)C(=O)c2ccccc21 [compound 38]	26	90		105	1.9	2.7	20.3	0.1		
NC1=C(Cl)C(=O)c2ccccc2C1=O [compound 1, 2-chloro-3-amino-1,4-NQ]	17	33	more than 30%	145	4.1	7.6	10.8	2.01		67
Cc1ccccc1NC1=C(Cl)C(=O)c2ccccc2C1=O [compound 40]	24.5	72		103	5.0	2.9	9	0		
COCCNC1=C(Cl)C(=O)c2ccccc2C1=O [compound 21]	60.4	65		104	6.5	6.4	5.2	0		
CC(C)(C)NC1=C(Cl)C(=O)c2ccccc2C1=O [compound 13]	29.9	45		84	2.7	4.3	28.7	0.52		
CCNC1=C(Cl)C(=O)c2ccccc2C1=O [compound 3]	81.9	59		93	3.9	6.3	23.6	1.01		
